Data: US8084209B2, “HMGCR isoforms in prediction of efficacy and identification of cholesterol-modulating compounds” (Children's Hospital & Research Center Oakland, priority 2005, dated 2011)

Tests used:
[1] = CAP trial: plasma lipid, lipoprotein and apoprotein response to 40 mg/day simvastatin; assay type: in vivo, human; parameters: LDL-Cholesterol, Absolute Difference / HDL-Cholesterol, Absolute Difference / ApoA1, Absolute Difference / ApoB, Absolute Difference / IDL-Cholesterol, Absolute Difference: unit not given here; Total Cholesterol, Absolute Difference: unit: mg/dL; details: for ApoA1, Absolute Difference / ApoB, Absolute Difference / HDL-Cholesterol, Absolute Difference / IDL-Cholesterol, Absolute Difference / LDL-Cholesterol, Absolute Difference / Total Cholesterol, Absolute Difference: 40 mg/day simvastatin in vivo
Protocol: Patients and cell lines. The Cholesterol/Atherosclerosis Pharmacogenetics (CAP) trial was a non-randomized, non-blinded study of 944 African-American and Caucasian men and women age 30 or older with baseline total cholesterol of 160 to 400 mg/dL.
A subset of 66 African American patients from the CAP trial was chosen for testing of the HMGCR gene expression assay (Examples 1, 2, 3, 4 and 5). An African American was defined as an individual who had three or more grandparents who self-identified as African American. A Caucasian was defined as an individual who had three or more grandparents who self-identified as Caucasian American. The table below provides a summary of the demographics for this population.
The table below provides a summary of the population demographics.
A dose study was performed with a second subset of 60 African American patients (Examples 1, 3, 4, and 5). […] The population demographics for this group is shown below.

[2] = test system: total HMGCR (6-7) transcript; test: HMGCR gene expression by real time PCR in immortalized lymphocyte cell lines, exons 6 to 7 assay; assay type: cell-based, human; details: 24 hours
Protocol: Cell lines were grown at 37° C., 5% CO2 in RPMI Medium 1640 (Invitrogen) supplemented with 10% fetal bovine serum (Hyclone), 500 units/ml Penicillin/Streptomycin (Invitrogen) and 2 nM GlutaMAX (Invitrogen). […] Media was changed 24 hours prior to exposure to ensure the cultures were in an active growth phase. After exposure, cells were pelleted, resuspended in Trizol (Invitrogen), and stored at −80° C. until RNA extraction.
RNA isolation and cDNA synthesis. RNA was isolated from the cell/Trizol slurries following the manufacturer's protocol (Invitrogen). RNA quality was assessed by gel electrophoresis and A260/A280 measured via spectrophotometry. […]
Real time PCR standards were generated by amplifying 100 ng lymphocyte cDNA with 1×PCR buffer, 1.5 mM MgCl2, 0.5 mM dNTPs, 1 mM of each primer, and 0.125 units Taq DNA polymerase (Invitrogen). […] Eight PCR reactions for each standard was generated, pooled, and quantitated via gel electrophoresis using a DNA low mass ladder (Invitrogen). […] PCR standards were run in triplicate on each plate to serve as a positive control for the assay and to quantitate levels of gene expression.
SLC7A5 and CLPTM1 were quantitated in all samples by TaqMan assays purchased from Applied Biosystems (part numbers Hs0018526_m1 and Hs00171300_m1). […]
HMGCR(12-13) and spliced HMGCR(12-14) mRNA was quantified via real time PCR as described above.

[3] = Study Population A, African Americans, N 66
[4] = Study Population B, Caucasian Americans, N 43
[5] = Study Population C, African Americans, N 60
[6] = on statin therapy, data in Examples 1-5

CCC(C)(C)C(=O)O[C@H]1C[C@@H](C)C=C2C=C[C@H](C)[C@H](CC[C@@H]3C[C@@H](O)CC(=O)O3)[C@H]21 [simvastatin]
mean HDL-cholesterol increase ([1]; African Americans, on statin therapy): 0.96 mg/dL | mean HDL-cholesterol increase ([1]; Caucasian Americans, on statin therapy): 2.17 mg/dL | ApoA1, Absolute Difference [1, 3]: −1.69 ± 1.76 | ApoB, Absolute Difference [1, 3]: −27.11 ± 1.71 | HDL-Cholesterol, Absolute Difference [1, 3]: 0.96 ± 0.75 | IDL-Cholesterol, Absolute Difference [1, 3]: −9.06 ± 0.75 | LDL-Cholesterol, Absolute Difference [1, 3]: −51.17 ± 2.37 | Total Cholesterol, Absolute Difference [1, 3]: −54.48 ± 2.79 | ApoA1, Absolute Difference [1, 4]: −2.114 ± 2.271 | ApoB, Absolute Difference [1, 4]: −33.091 ± 2.700 | HDL-Cholesterol, Absolute Difference [1, 4]: 2.155 ± 0.904 | IDL-Cholesterol, Absolute Difference [1, 4]: −10.373 ± 1.066 | LDL-Cholesterol, Absolute Difference [1, 4]: −63.909 ± 3.455 | Total Cholesterol, Absolute Difference [1, 4]: −65.614 ± 3.791 | ApoA1, Absolute Difference [1, 5]: 2.80 ± 1.79 | ApoB, Absolute Difference [1, 5]: −28.03 ± 1.88 | HDL-Cholesterol, Absolute Difference [1, 5]: 1.98 ± 0.55 | IDL-Cholesterol, Absolute Difference [1, 5]: −10.23 ± 0.80 | LDL-Cholesterol, Absolute Difference [1, 5]: −55.74 ± 3.36 | Total Cholesterol, Absolute Difference [1, 5]: −57.73 ± 3.62 | mean IDL cholesterol reduction (printed: mean total cholesterol reduction) [1, 6]: -9.85 mg/dL | mean LDL-cholesterol reduction [1, 6]: -56.0 mg/dL | mean total cholesterol reduction [1, 6]: -58.5 mg/dL | up-regulation of HMGCR(6-7) ([2]; African American cell lines, 14.5 μM simvastatin): 1.65±0.48 fold | total HMGCR (6-7) gene up-regulation, average fold change ([2]; cell lines derived from African Americans, 1.8 μM activated simvastatin): 1.44 fold
